Results: patent publication US20250206730A1 (AUTOTELIC BIO INC., priority 2022, published 2025)

Columns and labels:
ALK5 kinase = biological target: T1, ALK5 kinase (Homo sapiens, UniProt P36897); assay: LanthaScreen Eu Kinase Binding Assay; settings: Kinase Tracer 178, Eu-anti-GST Antibody, read-out: IC50 Enzyme
T1 sequence (P36897 34-503): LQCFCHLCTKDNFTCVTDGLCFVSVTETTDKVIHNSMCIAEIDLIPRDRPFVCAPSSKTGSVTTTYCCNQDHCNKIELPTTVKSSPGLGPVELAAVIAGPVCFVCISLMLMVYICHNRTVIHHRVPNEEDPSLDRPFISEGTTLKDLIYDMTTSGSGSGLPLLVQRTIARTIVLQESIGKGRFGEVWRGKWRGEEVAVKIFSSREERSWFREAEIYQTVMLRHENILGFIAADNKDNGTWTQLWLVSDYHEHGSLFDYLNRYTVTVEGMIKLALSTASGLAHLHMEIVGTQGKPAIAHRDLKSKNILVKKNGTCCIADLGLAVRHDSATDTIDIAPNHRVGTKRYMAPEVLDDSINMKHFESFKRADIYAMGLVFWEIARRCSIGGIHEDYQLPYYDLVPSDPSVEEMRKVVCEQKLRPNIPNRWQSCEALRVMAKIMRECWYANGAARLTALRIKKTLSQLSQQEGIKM
Summary of the method: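 Tracer-displacement TR-FRET: after 30 min RT compound–kinase preincubation, Eu-labelled anti-GST antibody plus Kinase Tracer 178 were incubated 60 min at RT. Binding was read as a lower 665 nm/615 nm emission ratio (excitation 340 nm).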

TGF-β signaling = assay: Assay for evaluating cellular inhibition of TGF-β signaling, 4T1 (SBE-luc2P) luciferase reporter; assay type: cell-based; settings: Mus musculus, 4T1, 4T1 (SBE-luc2P) transient pool, 0.2% FBS, 2 h pre-treatment, TGF-β1 2 ng/mL 24 h; read-out: IC50 4T1 Cell
Summary of the method: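 Luminescence from SMAD-binding-element luciferase was measured after 24 h of 2 ng/mL TGF-β1 at 37 °C, following 2 h compound pre-treatment. HEK293 stable reporter cells were used at 2.5×10^4/well in 0.5% FBS (~80% confluent); the 4T1 SBE-luc2P transient pool at 6×10^3/well in 0.2% FBS (~60% confluent).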

IC50 (ALK5 kinase) [nM]	IC50 (TGF-β signaling) [nM]	SMILES
< 100	< 100	CCc1nc(-c2cccc(C)n2)c(Oc2ccnc(Nc3ccc(C(N)=O)cn3)c2)s1 [A-251, 6-((4-((2-Ethyl-4-(6-methylpyridin-2-yl)thiazol-5-yl)oxy)pyridin-2-yl)amino)nicotinamide]
< 100	< 100	CC(C)c1nc(-c2ccccc2)c(Oc2ccnc(Nc3ccc(C(N)=O)cn3)c2)s1 [A-227, 6-((4-((2-Isopropyl-4-phenylthiazol-5-yl)oxy)pyridin-2-yl)amino)nicotinamide]
< 100	> 100	O=C(O)c1ccc(Nc2cc(Oc3sc(C4CCCC4)nc3-c3ccccc3)ccn2)cc1 [A-175, 4-((4-((2-Cyclopentyl-4-phenylthiazol-5-yl)oxy)pyridin-2-yl)amino)benzoic acid]
< 100	< 100	CCc1nc(-c2ccccc2)c(Oc2ccnc(Nc3ccnc(C(C)(C)O)c3)c2)s1 [A-186, 2-(4-((4-((2-Ethyl-4-phenylthiazol-5-yl)oxy)pyridin-2-yl)amino)pyridin-2-yl)propan-2-ol]
< 100	< 100	O=C(O)c1ccc(Nc2cc(Oc3sc(C4CC4)nc3-c3ccccc3)ccn2)nc1 [A-132, 6-((4-((2-Cyclopropyl-4-phenylthiazol-5-yl)oxy)pyridin-2-yl)amino)nicotinic acid]
< 100	> 100	Nc1nc(-c2ccccc2)c(Oc2ccnc(Nc3ccc(S(N)(=O)=O)cc3)c2)s1 [A-4, 4-((4-((2-Amino-4-phenylthiazol-5-yl)oxy)pyridin-2-yl)amino)benzenesulfonamide]
< 100	< 100	NS(=O)(=O)c1cccc(Nc2cc(Oc3sc(C4CC4)nc3-c3ccccc3)ccn2)c1 [A-116, 3-((4-((2-Cyclopropyl-4-phenylthiazol-5-yl)oxy)pyridin-2-yl)amino)benzenesulfonamide]
< 100	> 100	CCc1nc(-c2cccc(C)n2)c(Oc2ccnc(Nc3ccnc(C(=O)O)c3)c2)s1 [A-263, 4-((4-((2-Ethyl-4-(6-methylpyridin-2-yl)thiazol-5-yl)oxy)pyridin-2-yl)amino)picolinic acid]
< 100	< 100	NC(=O)c1ccc(Nc2cc(Oc3sc(C(F)(F)F)nc3-c3ccccc3)ccn2)cc1 [A-147, 4-((4-((4-Phenyl-2-(trifluoromethyl)thiazol-5-yl)oxy)pyridin-2-yl)amino)benzamide]
< 100	< 100	CCc1nc(-c2ccccc2)c(Oc2ccnc(Nc3ccc(C(=O)O)cc3)c2)s1 [A-195, 4-((4-((2-Ethyl-4-phenylthiazol-5-yl)oxy)pyridin-2-yl)amino)benzoic acid]
< 100	< 100	CCc1nc(-c2cccc(C)n2)c(Oc2ccnc(Nc3cncc(C(=O)NC)c3)c2)s1 [A-262, 5-((4-((2-Ethyl-4-(6-methylpyridin-2-yl)thiazol-5-yl)oxy)pyridin-2-yl)amino)-N-methylnicotinamide]
< 100	> 100	NC(=O)c1ccc(Nc2cc(Oc3sc(N)nc3-c3ccccc3)ccn2)cc1 [A-5, 4-((4-((2-Amino-4-phenylthiazol-5-yl)oxy)pyridin-2-yl)amino)benzamide]
< 100	< 100	Cc1nc(-c2ccccc2)c(Oc2ccnc(Nc3cccc(S(N)(=O)=O)c3)n2)s1 [A-238, 3-((4-((2-Methyl-4-phenylthiazol-5-yl)oxy)pyrimidin-2-yl)amino)benzenesulfonamide]
< 100	< 100	CCc1nc(-c2ccccc2)c(Oc2ccnc(Nc3ccc(C(N)=O)cn3)c2)s1 [A-190, 6-((4-((2-Ethyl-4-phenylthiazol-5-yl)oxy)pyridin-2-yl)amino)nicotinamide]
< 100	> 100	CNc1nc(-c2ccccc2)c(Oc2ccnc(Nc3cccc(C(C)(C)O)c3)c2)s1 [A-50, 2-(3-((4-((2-(Methylamino)-4-phenylthiazol-5-yl)oxy)pyridin-2-yl)amino)phenyl)propan-2-ol]
< 100	> 100	CC(C)c1nc(-c2ccccc2)c(Oc2ccnc(Nc3cccc(C(=O)O)c3)c2)s1 [A-230, 3-((4-((2-Isopropyl-4-phenylthiazol-5-yl)oxy)pyridin-2-yl)amino)benzoic acid]
< 100	< 100	CCc1nc(-c2cccc(C)n2)c(Oc2ccnc(Nc3cccc(C(N)=O)n3)c2)s1 [A-255, 6-((4-((2-Ethyl-4-(6-methylpyridin-2-yl)thiazol-5-yl)oxy)pyridin-2-yl)amino)picolinamide]

IC50 (ALK5 kinase) [nM]	IC50 (TGF-β signaling) [nM]	SMILES
< 100	< 100	O=C(O)c1ccc(Nc2cc(Oc3sc(C(F)(F)F)nc3-c3ccccc3)ccn2)cc1 [A-152, 4-((4-((4-Phenyl-2-(trifluoromethyl)thiazol-5-yl)oxy)pyridin-2-yl)amino)benzoic acid]
< 100	> 100	COc1nc(-c2ccccc2)c(Oc2ccnc(Nc3cccc(S(N)(=O)=O)c3)c2)s1 [A-142, 3-((4-((2-Methoxy-4-phenylthiazol-5-yl)oxy)pyridin-2-yl)amino)benzenesulfonamide]
< 100	> 100	Nc1nc(-c2ccccc2)c(Oc2ccnc(Nc3ccc(C(=O)O)cc3)c2)s1 [A-39, 4-((4-((2-Amino-4-phenylthiazol-5-yl)oxy)pyridin-2-yl)amino)benzoic acid]
< 100	< 100	Cc1nc(-c2ccccc2)c(Oc2ccnc(Nc3cccc(C(N)=O)c3)c2)s1 [A-60, 3-((4-((2-Methyl-4-phenylthiazol-5-yl)oxy)pyridin-2-yl)amino)benzamide]
< 100	< 100	CCc1nc(-c2cccc(C)n2)c(Oc2ccnc(Nc3cc(C(N)=O)ccn3)c2)s1 [A-267, 2-((4-((2-Ethyl-4-(6-methylpyridin-2-yl)thiazol-5-yl)oxy)pyridin-2-yl)amino)isonicotinamide]
< 100	> 100	NS(=O)(=O)c1cccc(Nc2cc(Oc3sc(C(F)(F)F)nc3-c3ccccc3)ccn2)c1 [A-145, 3-((4-((4-Phenyl-2-(trifluoromethyl)thiazol-5-yl)oxy)pyridin-2-yl)amino)benzenesulfonamide]
< 100	< 100	CCS(=O)(=O)Nc1cccc(Nc2cc(Oc3sc(C4CC4)nc3-c3ccccc3)ccn2)c1 [A-122, N-(3-((4-((2-Cyclopropyl-4-phenylthiazol-5-yl)oxy)pyridin-2-yl)amino)phenyl)ethanesulfonamide]
< 100	> 100	CC(C)c1nc(-c2ccccc2)c(Oc2ccnc(Nc3ccc(C(C)(C)O)nc3)c2)s1 [A-224, 2-(5-((4-((2-Isopropyl-4-phenylthiazol-5-yl)oxy)pyridin-2-yl)amino)pyridin-2-yl)propan-2-ol]
< 100	< 100	CCc1nc(-c2cccc(C)n2)c(Oc2ccnc(Nc3ccc(C(=O)O)cn3)c2)s1 [A-252, 6-((4-((2-Ethyl-4-(6-methylpyridin-2-yl)thiazol-5-yl)oxy)pyridin-2-yl)amino)nicotinic acid]
< 100	< 100	Cc1cccc(-c2nc(C)sc2Oc2ccnc(Nc3cccc(S(N)(=O)=O)c3)c2)n1 [A-303, 3-((4-((2-Methyl-4-(6-methylpyridin-2-yl)thiazol-5-yl)oxy)pyridin-2-yl)amino)benzenesulfonamide]
< 100	< 100	Cc1nc(-c2ccccc2)c(Oc2ccnc(Nc3cccc(Cc4nnn[nH]4)c3)c2)s1 [A-112, N-(3-((1H-Tetrazol-5-yl)methyl)phenyl)-4-((2-methyl-4-phenylthiazol-5-yl)oxy)pyridin-2-amine]
< 100	> 100	O=C(O)c1cccc(Nc2cc(Oc3sc(C(F)(F)F)nc3-c3ccccc3)ccn2)c1 [A-151, 3-((4-((4-Phenyl-2-(trifluoromethyl)thiazol-5-yl)oxy)pyridin-2-yl)amino)benzoic acid]
< 100	> 100	CNC(=O)c1ccc(Nc2cc(Oc3sc(N(C)C)nc3-c3ccccc3)ccn2)cc1 [A-164, 4-((4-((2-(Dimethylamino)-4-phenylthiazol-5-yl)oxy)pyridin-2-yl)amino)-N-methylbenzamide]
< 100	> 100	CN(C)c1nc(-c2ccccc2)c(Oc2ccnc(Nc3cccc(C(C)(C)O)c3)c2)s1 [A-153, 2-(3-((4-((2-(Dimethylamino)-4-phenylthiazol-5-yl)oxy)pyridin-2-yl)amino)phenyl)propan-2-ol]
> 100	> 100	CC(C)c1nc(-c2ccccc2)c(Oc2ccnc(Nc3cccc(C(C)(C)O)c3)c2)s1 [A-219, 2-(3-((4-((2-Isopropyl-4-phenylthiazol-5-yl)oxy)pyridin-2-yl)amino)phenyl)propan-2-ol]
< 100	< 100	CNc1nc(-c2ccccc2)c(Oc2ccnc(Nc3cccc(S(N)(=O)=O)c3)c2)s1 [A-51, 3-((4-((2-(Methylamino)-4-phenylthiazol-5-yl)oxy)pyridin-2-yl)amino)benzenesulfonamide]
